According to patent publication US20210238139A1, “MODULATORS OF TRYPTOPHAN CATABOLISM” (E-Therapeutics PLC, priority 2018, published 2021):

System: SK-OV-3 cells
Test: Effect of compounds on tryptophan catabolism in SK-OV-3 cell line (inhibition of kynurenine production, LC-MS/MS)
Format: cell-based
Conditions: Homo sapiens, SK-OV-3, 24 h, SK-OV-3 cell line, 24 h incubation, kynurenine in supernatant by LC-MS/MS; read-out: IC50 Ranges (ic50 values for inhibition of Kynurenine production)
Procedure: SK-OV-3 cells are seeded in 96-well plates in McCoy's 5A medium supplemented with 10% FBS and incubated overnight at 37° C., 5% CO2, 95% humidity. The […] growth medium is replaced with DMEM F-12 medium supplemented with 6 mg/mL L-tryptophan. Compounds are added to the wells and incubated for 24 h at 37° C., 5% CO2, 95% humidity. Compounds are tested at 8 consecutive 3-fold dilutions starting from 30 μM in duplicate. At the end of incubation, concentration of kynurenine in cell supernatants is […] determined by LC-MS/MS. In parallel, cell viability is assessed by measurement of ATP using CellTiter Glo assay (Promega), according to manufacturer's protocol. Inhibition of Kyn production is calculated using the following formula: […] IC50 ranges for compounds of the invention are presented in Table 2, whereby the IC50 ranges are as follows: • A: […]

SMILES | IC50
COc1ccc(CN(C(=O)Nc2ccc(F)c(F)c2)C2CCCC2)cc1C [Compound 47, 1-cyclopentyl-3-(3,4-difluorophenyl)-1-[(4-methoxy-3-methyl-phenyl)methyl]urea] | 100 to 500 nM
COc1ncc(CN(C(=O)Nc2ccccc2)C2CCCC2)s1 [Compound 49, 1-cyclopentyl-1-[(2-methoxythiazol-5-yl)methyl]-3-phenyl-urea] | 1000 to 5000 nM
N#Cc1cc(CN(C(=O)Nc2ccccc2)C2CCCC2)ccc1F [Compound 50, 1-[(3-cyano-4-fluoro-phenyl)methyl]-1-cyclopentyl-3-phenyl-urea] | 100 to 500 nM
N#Cc1cc(CN(C(=O)NCCc2ccccc2)C2CCCC2)ccc1F [Compound 51, 1-[(3-cyano-4-fluoro-phenyl)methyl]-1-cyclopentyl-3-(2-phenylethyl)urea] | > 5000 nM
O=C(Nc1cccs1)N(c1ccccc1)C1CCCC1 [Compound 58, 1-cyclopentyl-1-phenyl-3-(2-thienyl)urea] | 1000 to 5000 nM
O=C(Nc1ccc(Cl)cc1Cl)N(Cc1cccs1)C1CCCC1 [Compound 59, 1-cyclopentyl-3-(2,4-dichlorophenyl)-1-(2-thienylmethyl)urea] | 500 to 1000 nM
N#Cc1ccc(CN(C(=O)Nc2ccccc2)C2CCCC2)o1 [Compound 60, 1-[(5-cyano-2-furyl)methyl]-1-cyclopentyl-3-phenyl-urea] | 500 to 1000 nM
O=C(Nc1ccc(F)cc1)N(Cc1cnoc1)C1CCCC1 [Compound 62, 1-cyclopentyl-3-(4-fluorophenyl)-1-(isoxazol-4-ylmethyl)urea] | > 5000 nM
O=C(Nc1ccc(Cl)cc1)N(Cc1cnoc1)C1CCCC1 [Compound 63, 3-(4-chlorophenyl)-1-cyclopentyl-1-(isoxazol-4-ylmethyl)urea] | 1000 to 5000 nM
O=C(Nc1ccc(Cl)cc1)N(Cc1cccnc1)C1CCCC1 [Compound 66, 3-(4-chlorophenyl)-1-cyclopentyl-1-(3-pyridylmethyl)urea] | 100 to 500 nM
O=C(Nc1ccc(F)cc1)N(Cc1ccccn1)C1CCCC1 [Compound 68, 1-cyclopentyl-3-(4-fluorophenyl)-1-(2-pyridylmethyl)urea] | 1000 to 5000 nM
O=C(Nc1ccc(Cl)cc1)N(Cc1ccccn1)C1CCCC1 [Compound 69, 3-(4-chlorophenyl)-1-cyclopentyl-1-(2-pyridylmethyl)urea] | 100 to 500 nM
O=C(Nc1ccc(Cl)cc1)N(Cc1cnccn1)C1CCCC1 [Compound 71, 3-(4-chlorophenyl)-1-cyclopentyl-1-(pyrazin-2-ylmethyl)urea] | 500 to 1000 nM
CC1(CN(C(=O)Nc2ccc(F)cc2)C2CCCC2)CCN(C(=O)OC(C)(C)C)CC1 [Compound 78, tert-butyl 4-[[cyclopentyl-[(4-fluorophenyl)carbamoyl]amino]methyl]-4-methyl-piperidine-1-carboxylate] | 100 to 500 nM
Cc1ccc(CN(C(=O)Nc2ccncc2)C2CCCC2)o1 [Compound 81, 1-cyclopentyl-1-[(5-methyl-2-furyl)methyl]-3-(4-pyridyl)urea] | 500 to 1000 nM

Second part, the molecule after the results:

IC50 | SMILES
100 to 500 nM | COc1ccc(CN(C(=O)Nc2ccc(F)cc2)C2CCCC2)cc1C [Compound 48, 1-cyclopentyl-3-(4-fluorophenyl)-1-[(4-methoxy-3-methyl-phenyl)methyl]urea]
< 100 nM | N#Cc1cc(CN(C(=O)Nc2ccc(F)c(F)c2)C2CCCC2)ccc1F [Compound 52, 1-[(3-cyano-4-fluoro-phenyl)methyl]-1-cyclopentyl-3-(3,4-difluorophenyl)urea]
100 to 500 nM | N#Cc1cc(CN(C(=O)Nc2ccc(F)cc2)C2CCCC2)ccc1F [Compound 53, 1-[(3-cyano-4-fluoro-phenyl)methyl]-1-cyclopentyl-3-(4-fluorophenyl)urea]
1000 to 5000 nM | O=C(Nc1ccccc1F)N(Cc1cccs1)C1CCCC1 [Compound 54, 1-cyclopentyl-3-(2-fluorophenyl)-1-(2-thienylmethyl)urea]
500 to 1000 nM | O=C(Nc1cccc(F)c1)N(Cc1cccs1)C1CCCC1 [Compound 55, 1-cyclopentyl-3-(3-fluorophenyl)-1-(2-thienylmethyl)urea]
> 5000 nM | O=C(Nc1cccnc1)N(Cc1cccs1)C1CCCC1 [Compound 57, 1-cyclopentyl-3-(3-pyridyl)-1-(2-thienylmethyl)urea]
> 5000 nM | N#Cc1ccc(CN(C(=O)Nc2ccc(F)cc2)C2CCCC2)o1 [Compound 61, 1-[(5-cyano-2-furyl)methyl]-1-cyclopentyl-3-(4-fluorophenyl)urea]
1000 to 5000 nM | O=C(Nc1ccccc1)N(Cc1ccoc1)C1CCCC1 [Compound 64, 1-cyclopentyl-1-(3-furylmethyl)-3-phenyl-urea]
1000 to 5000 nM | O=C(Nc1ccccc1)N(Cc1cccnc1)C1CCCC1 [Compound 65, 1-cyclopentyl-3-phenyl-1-(3-pyridylmethyl)urea]
1000 to 5000 nM | O=C(Nc1ccccc1)N(Cc1ccccn1)C1CCCC1 [Compound 67, 1-cyclopentyl-3-phenyl-1-(2-pyridylmethyl)urea]
> 5000 nM | O=C(Nc1ccc(F)cc1)N(Cc1cnccn1)C1CCCC1 [Compound 70, 1-cyclopentyl-3-(4-fluorophenyl)-1-(pyrazin-2-ylmethyl)urea]
> 5000 nM | O=C(Nc1ccc(F)cc1)N(Cc1ncccn1)C1CCCC1 [Compound 72, 1-cyclopentyl-3-(4-fluorophenyl)-1-(pyrimidin-2-ylmethyl)urea]
1000 to 5000 nM | O=C(Nc1ccc(Cl)cc1)N(Cc1ncccn1)C1CCCC1 [Compound 73, 3-(4-chlorophenyl)-1-cyclopentyl-1-(pyrimidin-2-ylmethyl)urea]
> 5000 nM | O=C(Nc1ccc(F)cc1)N(Cc1ccncc1)C1CCCC1 [Compound 75, 1-cyclopentyl-3-(4-fluorophenyl)-1-(4-pyridylmethyl)urea]
500 to 1000 nM | O=C(Nc1ccc(Cl)cc1)N(Cc1ccncc1)C1CCCC1 [Compound 76, 3-(4-chlorophenyl)-1-cyclopentyl-1-(4-pyridylmethyl)urea]
100 to 500 nM | CC1(CN(C(=O)Nc2ccccc2)C2CCCC2)CCN(C(=O)OC(C)(C)C)CC1 [Compound 77, tert-butyl 4-[[cyclopentyl(phenylcarbamoyl)amino]methyl]-4-methyl-piperidine-1-carboxylate]
100 to 500 nM | CC1(CN(C(=O)Nc2ccc(Cl)cc2)C2CCCC2)CCN(C(=O)OC(C)(C)C)CC1 [Compound 79, tert-butyl 4-[[(4-chlorophenyl)carbamoyl-cyclopentyl-amino]methyl]-4-methyl-piperidine-1-carboxylate]
1000 to 5000 nM | CC1(CN(C(=O)Nc2ccccc2)C2CCCC2)CCNCC1 [Compound 85, 1-cyclopentyl-1-[(4-methyl-4-piperidyl)methyl]-3-phenyl-urea]
1000 to 5000 nM | CC1(CN(C(=O)Nc2ccc(F)cc2)C2CCCC2)CCNCC1 [Compound 86, 1-cyclopentyl-3-(4-fluorophenyl)-1-[(4-methyl-4-piperidyl)methyl]urea]
> 5000 nM | CC1(CN(C(=O)Nc2ccc(Cl)cc2)C2CCCC2)CCNCC1 [Compound 87, 3-(4-chlorophenyl)-1-cyclopentyl-1-[(4-methyl-4-piperidyl)methyl]urea]
500 to 1000 nM | O=C(Nc1ccncc1)N(Cc1cccc(C(F)(F)F)c1)C1CCCC1 [Compound 88, 1-cyclopentyl-3-(4-pyridyl)-1-[[3-(trifluoromethyl)phenyl]methyl]urea]
